From patent publication US12116421B2, “Peptide-based Dopa containing adhesive gels” (KING ABDULLAH UNIVERSITY OF SCIENCE AND TECHNOLOGY, priority 2020, dated 2024)
Where a SMILES comes first, the peptide text is derived from it. [ ]: non-standard residue; d: D form. Dopa = N[C@@H](Cc1ccc(O)c(O)c1)C(=O)O; Cha = N[C@@H](CC1CCCCC1)C(=O)O

Tests used:
[1] = Peptide gelation study by vial inversion test (CGC and gelation time); type: physicochemical; settings: 1×PBS; for gelation time: vial inversion test
Description: The critical gelation concentration (CGC) and gelation time of hydrogels formed by the catechol peptides in 1×PBS determined by vial inversion test are summarized below:
The peptide powder was dissolved in 0.90 mL of MilliQ® water and vortexed until fully dissolved. Then, 0.10 mL of 10×PBS buffer were added to the peptide solution to reach a final concentration of 1×PBS. Gelation of the solution in the vial was observed by vial inversion method. The time and critical gelation concentration (CGC) at which each peptide formed a hydrogel were recorded.

[2] = Raman spectroscopy of secondary structure of the peptides; type: physicochemical; settings: 1×PBS, 5 mg/mL, integrated area under Raman peak
Description: In one embodiment, the secondary structure of the IIZDoK peptide contains a larger amount of α-helix structure than DoIIZK and IIZKDo peptides that preferentially contain β-turn, as can be appreciated in the Raman spectroscopy signatures of the three peptides.
Raman spectroscopy measurements were performed on DoIIZK, IIZDoK and IIZKDo at 5 mg/mL concentration in 1×PBS buffer or on dry powder samples after deposition on CaF2 slide. Witec Alpha 300 RA confocal Raman spectrometer equipped with Andor CCD camera (DU970N thermoelectrically cooled at −75° C.) was used to perform the Raman measurements in backscattered configuration. The samples were excited through a 50× objective (Zeiss® LD EC Epiplan-Neofluar) with linearly polarized 532 nm wavelength excitation laser. For the analysis, the spectra were cosmic rays removed, baseline subtracted with a polynomial of 5th order, and averaged after normalization to the 1450 cm^−1 peak intensity. Several Voigt functions were fitted setting the peaks at 1653±3, 1663±3 and 1680±3 cm^−1, corresponding to α-helix, β-turn and unordered β-turn respectively, with a FWHM set to a max value of 25 cm^−1. An additional peak at about 1635 cm^−1 was introduced into the fitting to account for contributions from water, lysine and isoleucine Raman shifts.^11

[3] = AFM force spectroscopy adhesion measurement in liquid; type: physicochemical; settings: for reduction of adhesion force by addition of NaCl: NaCl versus MilliQ water
Description: In one embodiment, the peptides were dissolved in the proper solution at a concentration of 10 mg/mL. The peptide solutions were spotted on a freshly cleaved mica sheet and the measurement was performed in liquid.
In one embodiment, the adhesion properties of the Dopa peptides are influenced by the construct lysine-Dopa and by the position of the catechol moiety in the peptide sequence, as indicated by the AFM force spectroscopy results in liquid. In a typical force spectroscopy curve the probe is several times approached to the surface and retracted and for every cycle of retraction the maximum force of adhesion is recorded. The incorporation of a catechol moiety near a lysine would enhance adhesion to negatively charged surfaces. FIG. 28 illustrates the effect of lysine on adhesion to negatively charged surfaces. Therefore, probes and substrates that were manifesting negative charges on their surfaces, such as the silicon probe and the freshly cleaved mica substrate, are used in the AFM spectroscopy. The setup of probe and substrate is illustrated in FIG. 29.
The peptides dissolved in the proper solution at 13 mM concentration each, were spotted on a freshly cleaved mica sheet and the measurement was performed in liquid. Several force curves were recorded for different buffers. […] In FIG. 30, the inset image represents the maximum extension of each peptide dissolved in water, when manually pulled between two glass slides. Also in FIG. 30, the approach part of the curve contains the important information defined as “jump to contact”, while the retract part of the F-D curve contains the adhesion force value. […] Two controls were also introduced: namely the original peptide IIZK, and an alternative peptide IIFK. To better understand the influence of Dopa on the adhesion properties of the peptide, the original short peptide IIZK would make a perfect negative control. We also introduced as a control the IIFK peptide in order to understand the effect of IIZK itself on adhesion. In FIG. 32, statistical significance expressed as p<0.01.
AFM topography measurements were performed on a Dimension Icon SPM (Bruker®). The samples were prepared as follows: peptides were dissolved at 13 mM concentration in MilliQ® water; after 30 minutes, 20 μl of these solutions were dropped on freshly cleaved mica sheets and immediately dried with an N2 stream. Measurements were immediately performed in tapping mode in air by the use of an AFM probe AC_240TS_R3 (Olympus®) with nominal free oscillation at roughly 70 kHz and a nominal spring constant of 2 N/m. The probe was calibrated by contact-free method.^54 Free oscillation amplitude was set at 200 mV with a 5% damping during tapping mode measurement. AFM adhesion measurements were performed on a JPK Nanowizard™ III mounted on Olympus® IX-81 inverted optical microscope. A mica sheet was glued one day before the experiment with double component epoxy glue to a glass slide and enclosed in a plastic o-ring provided by the JPK company for liquid measurements. Each peptide was dissolved in MilliQ® water at a concentration of 13 mM and mixed gently. Starting with the measurement in MilliQ® water, 50 μL of the solution were dropped on the freshly cleaved mica sheet within 5 minutes from the preparation of the solution and let equilibrate for 10 minutes. After, the excess solution was removed by pipetting and discarded. Then 1 mL of MilliQ® water was added gently from the side and after 5 minutes, the sample was rinsed 3 times by additional 1 mL MilliQ® water. Finally, the sample was measured by AFM force spectroscopy (Quantitative imaging mode) with additional 1 mL MilliQ® water. The MilliQ® water was exchanged after the measurement alternatively with a water solution containing 137 mM NaCl or 10 mM Phosphate ions (a combination of Na2HPO4·7H2O and NaH2PO4·H2O to reach pH 7.4). After performing the force spectroscopy map in these two different solutions, eventually, the liquid was exchanged with 1×PBS pH 7.4. […]

Acropora fragments = experiment: Coral fragments glued to a tile in sea water, selection of best glue; type: in vivo, Acropora spp.; settings: for survival rate of the coral fragments: after 3 days, tile in aquarium with running seawater; for Survival after 3 days in the aquarium / Survival after attachment: number of Acropora fragments of n = 3; for time to detachment of glued fragments under water: DoIIZK: one of the fragments, IIZDoK: all fragments
Description: In one embodiment, coral fragments were attached to a tile using DoIIZK, IIZDoK, IIZKDo as a glue. The tile, to which the coral fragments were attached, has a size 10×10 cm and was placed into a shallow aquarium supplied with running seawater.
In one embodiment, the survival rate of the coral fragments fixed with DoIIZK was 67%, whereas the survival rate glued with IIZDoK and IIZKDo were respectively 0% and 100%, after 3 days.
The different glues were prepared at the same concentration of 40 mg/mL for DoIIZK, IIZDoK and IIZKDo. Then, the coral fragments were adhered to the surface of the tiles by applying gentle pressure as following: triplicates in the first line with DoIIZK as a glue, second line with IIZDoK and last line with IIZKDo. The experiment setup is illustrated in FIG. 40. The tiles were afterwards placed underwater in a tank containing filtered sea water. One of the fragments that was glued with DoIIZK detached less than 15 minutes after we placed the tile under water and all of the fragments that were glued with IIZDoK detached around 30 minutes after they have been placed under water.

[4] = glue 40 mg/mL, tile in filtered sea water

CC[C@H](C)[C@H](NC(C)=O)C(=O)N[C@H](C(=O)N[C@@H](CC1CCCCC1)C(=O)N[C@@H](CCCCN)C(=O)N[C@@H](Cc1ccc(O)c(O)c1)C(N)=O)[C@@H](C)CC [IIZKDo, Ac-Ile-Ile-Cha-Lys-Dopa-NH2] (Ac-II[Cha]K[Dopa]-NH2)
critical gelation concentration (CGC) [1]: 3 mg/mL
gelation time ([1]; peptide 1 mg/mL): Not gelating
gelation time ([1]; peptide 2 mg/mL): Not gelating
gelation time ([1]; peptide 3 mg/mL): 30 min
gelation time ([1]; peptide 3 mg/mL, listed as IIZKDopa): >30 min
gelation time ([1]; peptide 4 mg/mL): >21 min
gelation time ([1]; peptide 5 mg/mL): >16 min
Disordered structure Area % [2]: 1690; 18%
α-helix Area % [2]: 1658; 18%
β-turn Area % [2]: 1666; 64%
Force of adhesion (Geometric Mean) ([3]; 10 mM PO4, peptide 13 mM): 13.89 PN
Force of adhesion (Geometric Mean) ([3]; 137 mM NaCl, peptide 13 mM): 76.89 PN
Force of adhesion (Geometric Mean) ([3]; 1×PBS, peptide 13 mM): 29.5645 PN
Force of adhesion (Geometric Mean) ([3]; MilliQ water, peptide 13 mM): 73.31 PN
reduction of adhesion force by addition of NaCl [3]: did not significantly impact
survival rate of the coral fragments (Acropora fragments): 100%
fragments sticking to the tile after 17 days (Acropora fragments; glue 40 mg/mL, tile in filtered sea water, triplicates): still all sticking to the tile after 17 days
Survival after 3 days in the aquarium (Acropora fragments): 3
Survival after attachment (Acropora fragments): 3

CC[C@H](C)[C@H](NC(C)=O)C(=O)N[C@H](C(=O)N[C@@H](CC1CCCCC1)C(=O)N[C@@H](Cc1ccc(O)c(O)c1)C(=O)N[C@@H](CCCCN)C(N)=O)[C@@H](C)CC [IIZDoK, Ac-Ile-Ile-Cha-Dopa-Lys-NH2] (Ac-II[Cha][Dopa]K-NH2)
critical gelation concentration (CGC) [1]: 4 mg/mL
gelation time ([1]; peptide 1 mg/mL): Not gelating
gelation time ([1]; peptide 2 mg/mL): Not gelating
gelation time ([1]; peptide 3 mg/mL): Not gelating
gelation time ([1]; peptide 4 mg/mL): 80 min
gelation time ([1]; peptide 4 mg/mL, listed as IIZDopaK): >80 min
gelation time ([1]; peptide 5 mg/mL): >75 min
Disordered structure Area % [2]: 1690; 16%
α-helix Area % [2]: 1656; 40%
β-turn Area % [2]: 1666; 44%
Force of adhesion (Geometric Mean) ([3]; 10 mM PO4, peptide 13 mM): 22.47 PN
Force of adhesion (Geometric Mean) ([3]; 137 mM NaCl, peptide 13 mM): 44.01 PN
Force of adhesion (Geometric Mean) ([3]; 1×PBS, peptide 13 mM): 23.33 PN
Force of adhesion (Geometric Mean) ([3]; MilliQ water, peptide 13 mM): 72 PN
reduction of adhesion force by addition of NaCl [3]: about 50%
survival rate of the coral fragments (Acropora fragments): 0%
time to detachment of glued fragments under water (Acropora fragments; [4]): around 30 minutes
Survival after 3 days in the aquarium (Acropora fragments): 0
Survival after attachment (Acropora fragments): 3

CC[C@H](C)[C@H](NC(=O)[C@H](Cc1ccc(O)c(O)c1)NC(C)=O)C(=O)N[C@H](C(=O)N[C@@H](CC1CCCCC1)C(=O)N[C@@H](CCCCN)C(N)=O)[C@@H](C)CC [DoIIZK, Ac-Dopa-Ile-Ile-Cha-Lys-NH2] (Ac-[Dopa]II[Cha]K-NH2)
critical gelation concentration (CGC) [1]: 2 mg/mL
gelation time ([1]; peptide 1 mg/mL): Not gelating
gelation time ([1]; peptide 2 mg/mL): 45 min
gelation time ([1]; peptide 2 mg/mL, listed as DopaIIZK): >45 min
gelation time ([1]; peptide 3 mg/mL): >30 min
gelation time ([1]; peptide 4 mg/mL): >20 min
gelation time ([1]; peptide 5 mg/mL): >10 min
Disordered structure Area % [2]: 1687; 22%
α-helix Area % [2]: 1650; 13%
β-turn Area % [2]: 1665; 65%
Force of adhesion (Geometric Mean) ([3]; 10 mM PO4, peptide 13 mM): 34.81 PN
Force of adhesion (Geometric Mean) ([3]; 137 mM NaCl, peptide 13 mM): 64.64 PN
Force of adhesion (Geometric Mean) ([3]; 1×PBS, peptide 13 mM): 13.36 PN
Force of adhesion (Geometric Mean) ([3]; MilliQ water, peptide 13 mM): 112.7 PN
reduction of adhesion force by addition of NaCl [3]: about 50%
survival rate of the coral fragments (Acropora fragments): 67%
time to detachment of glued fragments under water (Acropora fragments; [4]): less than 15 minutes
Survival after 3 days in the aquarium (Acropora fragments): 2
Survival after attachment (Acropora fragments): 3
